Entries after “also recorded” stand apart in the source; their conditions may differ. Counter-ions that a name gives are not always drawn.
Tests used:
[1] = tested on: liver; conditions: in vivo; cited from earlier work
[2] = tested on: hepatocytes (liver); conditions: rat, in vivo, cited from earlier work; for RDLMN test result (liver micronucleus induction), collagenase digestion method: po
[3] = tested on: hepatocytes of formalin-fixed liver tissues; conditions: rat, in vivo; for RDLMN test result (liver micronucleus induction), formalin-fixed method: po
[4] = tested on: hepatocytes (liver); assay: Repeated-dose liver micronucleus (RDLMN) assay, collagenase digestion method; format: in vivo, rat; conditions: comparison between the two methods
[5] = design: method as in PMID 15979392; conditions: cited from earlier work
[6] = tested on: bone marrow; design: method as in PMID 9707102; conditions: cited from earlier work
[7] = tested on: liver; design: method as in PMID 25892619, PMID 25892626; conditions: previous study; cited from earlier work

Compound	Hepatocarcinogen / non-hepatocarcinogen classification [1]	RDLMN test result (liver micronucleus induction), collagenase digestion method [2]	RDLMN test result (liver micronucleus induction), formalin-fixed method [3]	also measured
CC(=O)Nc1ccc2c(c1)Cc1ccccc1-2 [2-AAF, 2-Acetylaminofluorene]	Hepatocarcinogen	positive	positive	–
CC(C)[N+](=O)[O-] [2-NP, 2-Nitropropane]	–	positive	positive	–
CCOC(=O)C(C)(C)Oc1ccc(Cl)cc1 [CFB, Clofibrate]	Hepatocarcinogen	–	–	–
O.O=P1(N(CCCl)CCCl)NCCCO1 (stereo not shown) [CP, Cyclophosphamide H2O]	Non-hepatocarcinogen	negative	negative	–
CN(C)c1ccc(N=Nc2ccccc2)cc1 [DAB, p-Dimethylaminoazobenzene]	Hepatocarcinogen	positive	positive	–
CN(C)N=O [DMN, Dimethylnitrosoamine]	Hepatocarcinogen	positive	positive	Frequency of MNHEPs by the formalin-fixed method compared with the collagenase digestion method [3]: Relatively higher frequencies of MNHEPs
C[C@H]1C(=O)O[C@@H]2CCN3CC=C(COC(=O)[C@](C)(O)[C@]1(C)O)[C@H]23 [MCT, Monocrotaline]	Hepatocarcinogen	positive	positive	–
COS(C)(=O)=O [MMS, Methyl methanesulfonate]	Non-hepatocarcinogen	positive	positive	–
CN(C)CCN(Cc1cccs1)c1ccccn1 [MP, Methapyrilene HCl]	Hepatocarcinogen	–	–	–
CCCN(CCC)N=O [NDPA, N-Nitrosodipropylamine]	Hepatocarcinogen	positive	positive	Frequency of MNHEPs by the formalin-fixed method compared with the collagenase digestion method [3]: Relatively higher frequencies of MNHEPs
O=NN1CCOCC1 [NMOR, N-Nitrosomorpholine]	Hepatocarcinogen	positive	positive	–
O=NN1CCCC1 [NPYR, N-Nitrosopyrrolidine]	Hepatocarcinogen	–	–	Micronucleus induction by the collagenase digestion method compared with the formalin-fixed method [4]: the same trend; also recorded: higher micronucleus induction
c1ccc2ncccc2c1 [QUN, Quinoline]	–	positive	positive	–
Oc1ccc2ccccc2c1N=Nc1ccccc1 [Sudan I, Sudan I (C.I.solvent yellow 14)]	Hepatocarcinogen	negative	positive	in vitro chromosome aberration test result [5]: negative; liver carcinogenicity [1]: positive; short-term bone marrow micronucleus assay result [6]: positive; Dose dependence of liver micronucleus induction, collagenase digestion method [2]: a tendency, though slight, toward a dose-dependent increase; Histopathological finding in the liver [7]: remarkable HEP hypertrophy
CC(=N)S [TAA, Thioacetamide]	Hepatocarcinogen	negative	positive	Frequency of MNHEPs by the formalin-fixed method compared with the collagenase digestion method [3]: comparable
